Test results from ChEMBL document CHEMBL1201862, “PubChem BioAssay data set” (2004).
Where “and” joins values, the source holds several entries; their conditions need not be identical. Equal entries are not always repeated.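 Briefly, cells in 96-well plates were exposed to five compound concentrations for 48 h, and endpoints were estimated by linear interpolation. Abbreviation: GI50, concentration required for 50% inhibition of growth.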 Calls of active or inactive are those of the source. Rule as the data show it: active = GI50 up to about 1.1 µM and inactive = higher.

How the values were obtained:
Assay in all cases: inhibition of tumour cell growth, NCI panel, 48 h
BT-549 = test system: BT-549
786-0 = test system: 786-0
PC-3 = test system: PC-3
UO-31 = test system: UO-31
TK-10 = test system: TK-10
SK-OV-3 = test system: SK-OV-3
SF-295 = test system: SF-295
UACC-62 = test system: UACC-62
SK-MEL-28 = test system: SK-MEL-28
EKVX = test system: EKVX
RXF 393 = test system: RXF 393
HT-29 = test system: HT-29
SW-620 = test system: SW-620
UACC-257 = test system: UACC-257
OVCAR-4 = test system: OVCAR-4
A498 = test system: A498
Malme-3M = test system: Malme-3M
MCF7 = test system: MCF7
SK-MEL-2 = test system: SK-MEL-2
MDA-MB-231 = test system: MDA-MB-231
HCC 2998 = test system: HCC 2998
OVCAR-5 = test system: OVCAR-5
SF-268 = test system: SF-268
SNB-19 = test system: SNB-19
DU-145 = test system: DU-145
ACHN = test system: ACHN
IGROV-1 = test system: IGROV-1
NCI/ADR-RES = test system: NCI/ADR-RES
NCI-H460 = test system: NCI-H460
M14 = test system: M14
KM12 = test system: KM12
MOLT-4 = test system: MOLT-4
LOX IMVI = test system: LOX IMVI
RPMI-8226 = test system: RPMI-8226
MDA-N = test system: MDA-N
HL-60 = test system: HL-60
NCI-H522 = test system: NCI-H522
OVCAR-3 = test system: OVCAR-3
OVCAR-8 = test system: OVCAR-8
HCT-116 = test system: HCT-116
SN12C = test system: SN12C
CAKI-1 = test system: CAKI-1
CCRF-CEM = test system: CCRF-CEM
COLO 205 = test system: COLO 205
A549 = test system: A549
MDA-MB-435 = test system: MDA-MB-435
T47D = test system: T47D
HOP-62 = test system: HOP-62
SF-539 = test system: SF-539
K562 = test system: K562
NCI-H226 = test system: NCI-H226
HOP-92 = test system: HOP-92
NCI-H23 = test system: NCI-H23
HCT-15 = test system: HCT-15
SK-MEL-5 = test system: SK-MEL-5
U-251 = test system: U-251

Compound: CC(C)=CCCC1(C)C2COC(=O)C21 (stereo unspecified)
- GI50 (BT-549): > 100 µM (inactive)
- GI50 (786-0): > 100 µM (inactive) and 63.2 µM (inactive)
- GI50 (PC-3): > 100 µM (inactive)
- GI50 (UO-31): > 100 µM (inactive)
- GI50 (TK-10): > 100 µM (inactive)
- GI50 (SK-OV-3): > 100 µM (inactive)
- GI50 (SF-295): > 100 µM (inactive) and 63.2 µM (inactive)
- GI50 (UACC-62): > 100 µM (inactive)
- GI50 (SK-MEL-28): > 100 µM (inactive)
- GI50 (EKVX): 67.5 µM (inactive)
- GI50 (RXF 393): > 100 µM (inactive)
- GI50 (HT-29): > 100 µM (inactive)
- GI50 (SW-620): 64.7 µM (inactive)
- GI50 (UACC-257): > 100 µM (inactive)
- GI50 (OVCAR-4): > 100 µM (inactive) and 80 µM (inactive)
- GI50 (A498): > 100 µM (inactive)
- GI50 (Malme-3M): > 100 µM (inactive)
- GI50 (MCF7): 31.3 µM (inactive) and 33.9 µM (inactive)
- GI50 (SK-MEL-2): > 100 µM (inactive)
- GI50 (MDA-MB-231): > 100 µM (inactive)
- GI50 (HCC 2998): > 100 µM (inactive)
- GI50 (OVCAR-5): > 100 µM (inactive)
- GI50 (SF-268): > 100 µM (inactive)
- GI50 (SNB-19): > 100 µM (inactive)
- GI50 (DU-145): > 100 µM (inactive)
- GI50 (ACHN): > 100 µM (inactive) and 68.9 µM (inactive)
- GI50 (IGROV-1): 53.7 µM (inactive)

Compound: COC(=O)/C=C1\CCC(C)(C(=O)NS(=O)(=O)c2ccc(C)cc2)C1(C)C (stereo unspecified)
- GI50 (BT-549): > 100 µM (inactive)
- GI50 (NCI/ADR-RES): > 100 µM (inactive)
- GI50 (786-0): > 100 µM (inactive)
- GI50 (PC-3): > 100 µM (inactive)
- GI50 (UO-31): > 100 µM (inactive)
- GI50 (TK-10): > 100 µM (inactive)
- GI50 (NCI-H460): > 100 µM (inactive)
- GI50 (M14): > 100 µM (inactive)
- GI50 (KM12): > 100 µM (inactive)
- GI50 (SK-OV-3): > 100 µM (inactive)
- GI50 (MOLT-4): > 100 µM (inactive)
- GI50 (SF-295): > 100 µM (inactive)
- GI50 (LOX IMVI): > 100 µM (inactive)
- GI50 (UACC-62): > 100 µM (inactive)
- GI50 (RPMI-8226): > 100 µM (inactive)
- GI50 (EKVX): > 100 µM (inactive)
- GI50 (MDA-N): > 100 µM (inactive)
- GI50 (HL-60): > 100 µM (inactive)
- GI50 (NCI-H522): > 100 µM (inactive)
- GI50 (RXF 393): > 100 µM (inactive)
- GI50 (OVCAR-3): > 100 µM (inactive)
- GI50 (SW-620): > 100 µM (inactive)
- GI50 (OVCAR-8): > 100 µM (inactive)
- GI50 (UACC-257): > 100 µM (inactive)
- GI50 (OVCAR-4): > 100 µM (inactive)
- GI50 (HCT-116): > 100 µM (inactive)
- GI50 (A498): > 100 µM (inactive)
- GI50 (SN12C): > 100 µM (inactive)
- GI50 (CAKI-1): > 100 µM (inactive)
- GI50 (CCRF-CEM): > 100 µM (inactive)
- GI50 (COLO 205): > 100 µM (inactive)
- GI50 (A549): > 100 µM (inactive)
- GI50 (MDA-MB-435): 4.48 µM (inactive)
- GI50 (T47D): > 100 µM (inactive)
- GI50 (Malme-3M): > 100 µM (inactive)
- GI50 (MCF7): > 100 µM (inactive)
- GI50 (SK-MEL-2): > 100 µM (inactive)
- GI50 (MDA-MB-231): > 100 µM (inactive)
- GI50 (HOP-62): > 100 µM (inactive)
- GI50 (SF-539): > 100 µM (inactive)
- GI50 (HCC 2998): > 100 µM (inactive)
- GI50 (OVCAR-5): > 100 µM (inactive)
- GI50 (SF-268): > 100 µM (inactive)
- GI50 (K562): > 100 µM (inactive)
- GI50 (NCI-H226): > 100 µM (inactive)
- GI50 (SNB-19): > 100 µM (inactive)
- GI50 (HOP-92): > 100 µM (inactive)
- GI50 (NCI-H23): > 100 µM (inactive)
- GI50 (HCT-15): > 100 µM
- GI50 (SK-MEL-5): > 100 µM (inactive)
- GI50 (DU-145): > 100 µM (inactive)
- GI50 (ACHN): > 100 µM (inactive)
- GI50 (U-251): > 100 µM (inactive)
- GI50 (IGROV-1): > 100 µM (inactive)
